Data on 1 compound can be found in US6677362B1, “Solid pharmaceutical dispersions” (Warner-Lambert Company, priority 1991, dated 2004).

Series [1] in a line: solubility of the drug in water / aqueous media. It is filed as physicochemical.
Series [2] is described as follows: in vivo bioavailability studies involving animal models. To be noted: administered in its original crystalline form.

For `Cc1c(C)c2c(c(C)c1O)CCC(C)(COc1ccc(CC3SC(=O)NC3=O)cc1)O2` (single isomer, unassigned; (+)) [Romglizone, (+)-5-[4-(6-hydroxy-2,5,7,8-tetramethylchroman-2-ylmethoxy)-benzyl]-2,4-thiazolidinedione], the “change of solubility with pH” value in series [1] (as the pH of the aqueous media increases) is reported as “slightly increases”. Moreover, the solubility in water entry in series [1] (water) was “practically insoluble”. Moreover, the bioavailability entry in series [2] is recorded as “poor bioavailability”.
